# From patent US6784137B2, “6-aryl-4-aminopicolinates and their use as herbicides” (Dow AgroSciences LLC, priority 2001, dated 2004)
# Where two headings read alike, the source gives them in different places.
# Experiments:
# [1] = tested on: Barnyardgrass (Echinochloa crus-galli); test: Postemergence herbicidal activity, greenhouse spray; type: in vivo; details: Echinochloa crus-galli, post-emergence, 336 h, visual score after 2 weeks, read-out: Post-emergent % control ECHCG; for pest or weed control at 500 ppm: rate 500 ppm; for pest or weed control at 250 ppm: rate 250 ppm; for pest or weed control at 125 ppm: rate 125 ppm
# How it was run: (§1)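 Greenhouse-grown plants (7–21 days, ~15 h photoperiod, 23–29 °C day) at first or second true leaf stage were sprayed to full coverage with compound in acetone/water/isopropanol/DMSO/crop oil/Triton X-155 carrier. Controls received carrier alone; plants were sub-irrigated afterwards.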
# [2] = tested on: Cocklebur (Xanthium strumarium); test: as above; type: in vivo; details: Xanthium strumarium, post-emergence, 336 h, visual score after 2 weeks, read-out: Post-emergent % control XANST; for pest or weed control at 500 ppm: rate 500 ppm, 0 no injury, 100 complete kill; for pest or weed control at 250 ppm: rate 250 ppm; for pest or weed control at 125 ppm: rate 125 ppm
# How it was run: as §1
# [3] = tested on: Lambsquarter (Chenopodium album); test: as above; type: in vivo; details: Chenopodium album, post-emergence, 336 h, visual score after 2 weeks, read-out: Post-emergent % control CHEAL; for pest or weed control at 500 ppm: rate 500 ppm; for pest or weed control at 250 ppm: rate 250 ppm; for pest or weed control at 125 ppm: rate 125 ppm
# How it was run: as §1
# [4] = tested on: Yellow nutsedge (Cyperus esculentus); test: as above; type: in vivo; details: Cyperus, post-emergence, 336 h, visual score after 2 weeks, read-out: Post-emergent % control CYPES; for pest or weed control at 500 ppm: rate 500 ppm; for pest or weed control at 250 ppm: rate 250 ppm; for pest or weed control at 125 ppm: rate 125 ppm
# How it was run: as §1
# [5] = tested on: Crabgrass(large) (Digitaria sanguinalis); test: Preemergence herbicidal activity, soil spray; type: in vivo; details: Digitaria sanguinalis, pre-emergence, 504 h, Table 5, visual score after 3 weeks, read-out: Pre-emergent % control DIGSA; for pest or weed control at 140 ppm: rate 140 ppm; for pest or weed control at 560 ppm: rate 560 ppm
# Text: (§2) Seeds of the desired test plant species were planted in a soil matrix prepared by mixing a loam soil (43 percent silt, 19 percent clay, and 38 percent sand, with a pH of about 8.1 and an organic matter content of about 1.5 percent) and sand in a 70 to 30 ratio. The soil matrix was contained in plastic pots with a surface area of 113 square centimeters. When required to ensure good germination and healthy plants, a fungicide treatment and/or other chemical or physical treatment was applied. A weighed amount, determined by the highest rate to be tested, of each test compound was placed in a 20 mL glass vial and was dissolved in 4 mL of a 97:3 v/v (volume/volume) mixture of acetone and dimethyl sulfoxide to obtain concentrated stock solutions. […] The stock solutions obtained were diluted with a 99.9:0.1 mixture of water and Tween® 155 surfactant to obtain application solutions of known concentration. The solutions containing the highest concentration to be tested were prepared by diluting 2 mL aliquots of the stock solution with 15 mL of the mixture and lower concentrations were prepared by serial dilution of the stock solution. A 2.5 mL aliquot of each solution of known concentration was sprayed evenly onto the soil surface (113 sq. cm) of each seeded pot using a Cornwall 5.0 mL glass syringe fitted with a TeeJet TN-3 hollow cone nozzle to obtain thorough coverage of the soil in each pot. Control pots were sprayed in the same manner with the aqueous mixture. The treated pots and control pots were placed in a greenhouse maintained with an approximate 15 hr photoperiod and temperatures of about 23-29° C. during the day and 22-28° C. during the night. Nutrients and water were added on a regular basis and supplemental lighting was provided with overhead metal halide 1000-Watt lamps as necessary. The water was added by top-irrigation.
# [6] = tested on: Giant Foxtail (Setaria faberi); test: Preemergence herbicidal activity, soil spray; type: in vivo; details: Setaria faberi, pre-emergence, 504 h, Table 5, visual score after 3 weeks, read-out: Pre-emergent % control SETFA; for pest or weed control at 140 ppm: rate 140 ppm; for pest or weed control at 560 ppm: rate 560 ppm
# Text: as §2
# [7] = tested on: Lambsquarter (Chenopodium album); test: Preemergence herbicidal activity, soil spray; type: in vivo; details: Chenopodium album, pre-emergence, 504 h, Table 5, visual score after 3 weeks, read-out: Pre-emergent % control CHEAL; for pest or weed control at 140 ppm: rate 140 ppm; for pest or weed control at 560 ppm: rate 560 ppm, 100 complete kill or no germination
# Text: as §2
# [8] = tested on: Pigweed (redroot) (Amaranthus retroflexus); test: Preemergence herbicidal activity, soil spray; type: in vivo; details: Amaranthus retroflexus, pre-emergence, 504 h, Table 5, visual score after 3 weeks, read-out: Pre-emergent % control AMARE; for pest or weed control at 140 ppm: rate 140 ppm; for pest or weed control at 560 ppm: rate 560 ppm
# Text: as §2
melting point [°C],Compound,pest or weed control at 500 ppm ([1]; Table 1) [%],pest or weed control at 500 ppm ([2]; Table 1) [%],pest or weed control at 500 ppm ([3]; Table 1) [%],pest or weed control at 500 ppm ([4]; Table 1) [%],pest or weed control at 140 ppm [5] [%],pest or weed control at 140 ppm [6] [%],pest or weed control at 140 ppm [7] [%],pest or weed control at 140 ppm [8] [%],pest or weed control at 250 ppm ([1]; Table 1) [%],pest or weed control at 125 ppm ([1]; Table 2) [%],pest or weed control at 250 ppm ([2]; Table 1) [%],pest or weed control at 125 ppm ([2]; Table 2) [%],pest or weed control at 250 ppm ([3]; Table 1) [%],pest or weed control at 125 ppm ([3]; Table 2) [%],pest or weed control at 125 ppm ([4]; Table 2) [%],pest or weed control at 560 ppm [5] [%],pest or weed control at 560 ppm [6] [%],pest or weed control at 560 ppm [7] [%],pest or weed control at 560 ppm [8] [%],other results
169 to 170,"COC(=O)c1nc(-c2ccc(F)c(Cl)c2)cc(N)c1Cl [Compound 39, Methyl 4-amino-3-chloro-6-(3-chloro-4-fluorophenyl)pyridine-2-carboxylate]",95,100,100,99,95,75,95,100,,,,,,,,,,,,
160,"COC(=O)c1nc(-c2ccc3c(c2)OCO3)c(F)c(N)c1Cl [Compound 84, Methyl 4-amino-3-chloro-5-fluoro-6-(3,4-methylenedioxyphenyl)pyridine-2-carboxylate]",,,,,,,,,98,98,100,100,100,100,90,100,100,100,100,pest or weed control at 250 ppm ([4]; Table 1): 100%
160 to 162,"COC(=O)c1nc(-c2ccc(Cl)cc2)c(Cl)c(N)c1Cl [Compound 86, Methyl 4-amino-3,5-dichloro-6-(4-chlorophenyl)pyridine-2-carboxylate]",90,100,100,90,,,,,,80,,100,,100,100,40,40,100,100,
122,"COC(=O)c1nc(-c2ccc(Cl)cc2Cl)c(F)c(N)c1Cl [Compound 88, Methyl 4-amino-3-chloro-5-fluoro-6-(2,4-dichlorophenyl)pyridine-2-carboxylate]",,,,,,,,,85,85,100,100,100,100,95,70,70,100,100,pest or weed control at 250 ppm ([4]; Table 1): 95%
165 to 166,"COC(=O)c1nc(-c2ccc(Cl)cc2)c(F)c(N)c1F [Compound 90, Methyl 4-amino-3,5-difluoro-6-(4-chlorophenyl)pyridine-2-carboxylate]",98,100,100,90,,,,,,,,,,,,100,100,100,100,
,"Nc1cc(-c2ccc(C(F)(F)F)cc2Cl)nc(C(=O)O)c1Cl [Compound 184, 4-Amino-3-chloro-6-(2-chloro-4-(trifluoromethyl)phenyl)pyridine-2-carboxylic acid]",,,,,90,70,90,85,,,,,,,,,,,,pest or weed control at 125 ppm ([1]; Table 1): 70%; pest or weed control at 125 ppm ([2]; Table 1): 100%; pest or weed control at 125 ppm ([3]; Table 1): 70%; pest or weed control at 125 ppm ([4]; Table 1): 40%
